How the values were obtained:
EAE mice = test: Clinical signs of MOG-induced EAE, late treatment from day 9; format: in vivo, C57bl/6 mice; details: for percent of the maximal response: score difference relative to control score 2.4
Procedure: Eight-week-old female C57bl/6 mice were purchased from Harlan. The mice were housed under standard conditions in top filtered cages. Mice were fed a regular diet and given acidified water without antibiotics.
Disease was induced by immunization with the peptide encompassing amino acids 35-55 of rat MOG synthesis (Anaspec, Fremont, Calif.). Mice were injected subcutaneously (s.c.) at the flank, with a 200 μl emulsion containing 300 μg of MOG in complete Freund's adjuvant (CFA) enriched with 500 μg Mycobacterium tuberculosis H37Ra (Difco Laboratories, Detroit, Mich.). Pertussis toxin (List biological laboratories, California, USA), […], was injected intra-peritoneally (i.p.) immediately after the MOG injection and then 48 h later. Mice were examined daily. EAE was scored as follows: 0, no abnormality; 1, mild limp tail weakness (floppy tail); 2, tail paralysis; 3, tail paralysis and hind leg paresis; 4, hind leg paralysis or mild forelimb weakness; 5, quadriplegia or moribund state; 6, death.
Briefly, FTS (as powder) was diluted in chloroform (35.8 mg/ml of FTS=0.1 M) and kept in aliquots. The content (280 μl) of one aliquot was evaporated under nitrogen and then dissolved in 40 μl absolute ethanol and 15 μl NaOH; 2.5 ml of PBS was subsequently added. Each mouse received 0.1 ml of this solution daily (0.4 mg/mouse which on a per unit weight basis equates to 20 mg/kg) intraperitoneally (i.p.), starting from day 9 of disease induction, just before the clinical onset of paralysis.
EAE was induced in C57bl/6 mice with MOG and drug treatment started on day 9 of disease induction. The animals were divided into four (4) groups.

Foxp3 = test: Western blotting of splenocyte lysates: Foxp3; format: in vivo, mice; details: day 17 post EAE-induction; FTS 20 mg/kg/day i.p., GA 15 mg/kg/day s.c.
Text: (§1) On day 16 post EAE-induction, the brains and splenocytes of the mice (n=4 per each group) were homogenized and their lysates were subjected to sodium dodecyl sulfate-olyacrylamide gel electrophoresis followed by western blotting, as described (Goldberg and Kloog, 2006), with one of the following antibodies: pan-RAS (Ab-3; Calbiochem, San Diego, Calif.), anti-CD3 Ab (AbD serotec, Oxford, UK), anti-ERK (Santa Cruz Biotechnology, CA. USA), anti phospho-ERK (Sigma, USA), anti-tubulin Ab and anti-Foxp3 Ab (eBioScience, San Diego, Calif.). Protein bands were visualized by enhanced chemiluminescence (ECL) kit (Amersham Pharmacia Biotech, Arlington Heights, Ill.) and quantified by densitometry with Image EZQuant-Gel software (Copyright©2005, EZQuant Ltd). Lysates were used to determine Ras-GTP by the glutathione S-transferase (GST)-Ras-binding domain pulldown assay, and this was followed by western blotting with anti pan-Ras Ab.

[1] = system: lymphocytes from the spleens of EAE mice; test: Ex vivo BrdU proliferation response of EAE splenocytes to antigens and mitogens; format: cell-based; details: in vivo FTS 20 mg/kg/day i.p., GA 15 mg/kg/day s.c.
Procedure: Pooled single cell suspension of spleens were obtained on […] post-EAE induction and assayed in vitro for their response to antigens and mitogens ([…], lipopolysacharide—LPS, and concanavalin A—ConA) by a proliferation assay. The assay was carried out by plating in each microculture well 2×10^4 cells in 0.1 ml of proliferation medium containing optimal concentration of antigens as follows: 25 μg/ml MOG, 50 μg/ml MOG, 20 μg/ml LPS or 1 μg/ml of ConA. The experiments were performed in triplicate in 96-well, flat-bottom, microtiter plates (Costar, Cambridge, USA). Cultures were incubated for 72 h in humidified atmosphere of 95% air and 5% CO2 at 37° C. Cell proliferation was determined by Colorimetric Bromodeoxyuridine (BrdU) Cell Proliferation kit (Calbiochem, Darmstadt, Germany) following manufacturer's instructions. In brief, 20 μl of BrdU labeling solution diluted 1:2000 in culture medium were added to each well for the last 18 h of culture. After removing the medium, cells were fixed, and anti-BrdU peroxidase working solution was added to each well and incubated for one (1) hour at room temperature. Following several washes, substrate solution was added, color was developed, and absorbance was measured with a microplate reader at 450 nm. The stimulation index (S.I.) was calculated as follows: the mean absorbance of cells culture in the presence of antigen divided by the mean absorbance of cells in the absence of antigen.
Lymphocytes were obtained from the spleens of mice on day 16 post immunization with MOG and subjected to ex vivo BrdU incorporation proliferation assays. […] The cells, obtained from the four groups described above, were stimulated with various mitogens ex vivo for 48 h.

[2] = system: infiltration and demyelination in the spinal cords of EAE mice; test: Histology of lumbar spinal cord (H&E, LFB); format: in vivo, C57bl/6 mice; details: day 16 post EAE-induction; FTS 20 mg/kg/day i.p., GA 15 mg/kg/day s.c.
Text: The lumbar part of the mice's spinal cord (n=8 mice for each group) was fixed in 4% paraformaldehyde (Electric Microscopy Science, PA, USA) and embedded in paraffin and cut in 4-μm-thick axial sections. Sections were stained with hematoxylin and eosin (H&E) and luxol fast blue (LFB) and then mounted in histomount medium (Invitrogen Corporation, CA, USA). Images were examined under a light microscope and captured with a NikonDS-5Mcamera (NikonInstech, Tokyo, Japan). Quantification of the inflammation and demyelination was conducted as previously described (Mi, et al., 2007). Briefly, to quantify inflammation H&E-stained nuclei were imaged, counted and percentage of stained cells per field were calculated. Similarly the percentage of regions with demyelination per field was estimated by counting the LFB-stained images. Imaging was aided by the use of Image-Pro Plus 5.1 software (MediaCybernetics, Silver, Spring, Md.).

[3] = system: EAE lesions and blood-brain barrier disruption in the spinal cord; test: MR imaging of spinal cord (L1-S3) of EAE mice, T2-map and Gd-DTPA T1-weighted; format: in vivo, C57bl/6 mice; details: day 14 post EAE-induction; FTS 20 mg/kg/day i.p., GA 15 mg/kg/day s.c.; FIG. 2C
Procedure: The treatment effect was evaluated by MRI experiments which were conducted on day 14 after EAE-induction. […] During the MRI scanning, mice were anesthetized with isofluorane (3% for induction, 1-2% for maintenance) mixed with compressed air (1 l/min) delivered through a nasal mask. Once anesthetized, the animals were placed in a body-holder to assure reproducible positioning inside the magnet. Respiration rate was monitored and maintained throughout the experimental period at 60-80 breaths/min. MRI experiments were performed on a 7T Bruker scanner (70/30 USR Bruker BioSpec, Germany) equipped with a gradient coil system capable of producing pulse gradients of up to 400 mT/m in each of the three directions. […]
T2-map MRI was used to deliberate the EAE lesions (demyelination) in the mice's spinal cords. Lesion volume was calculated from the T2-map MR images using the MATLAB® image processing toolbox. […] From that value was then subtracted the value of a normal appearing parallel tissue in the same slice which was measured in the same way as described above. […]
The gadolinium enhancement obtained from T1-weighted MRI reflects the infusate distribution in the mice's blood-brain barrier within the spinal cord. Thus, the volume (in mm^3) of infusate distribution was calculated from the T1-weighted MRI. […] The volume in the regions of interest was counted and accumulated for each mouse.

phospho-Erk = test: Western blotting of splenocyte lysates: phospho-Erk; format: in vivo, mice; details: FTS 20 mg/kg/day i.p., GA 15 mg/kg/day s.c.
Text: as §1

Ras = test: Western blotting of splenocyte lysates: Ras; format: in vivo, mice; details: FTS 20 mg/kg/day i.p., GA 15 mg/kg/day s.c.
Text: as §1

[4] = 0-6 scale, FTS 20 mg/kg/day i.p., GA 100 mg/kg/day s.c., daily from day 9, FIG. 1A
[5] = Example II: 0-6 scale, FTS 60 mg/kg/day p.o., GA 15 mg/kg/day s.c., FIG. 7A
[6] = Example II: FTS 60 mg/kg/day p.o., GA 15 mg/kg/day s.c., daily from day 9
[7] = FTS 20 mg/kg/day i.p., GA 15 mg/kg/day s.c.
[8] = FTS 20 mg/kg/day i.p., GA 15 mg/kg/day s.c., daily from day 9, four experiments
[9] = FTS 20 mg/kg/day i.p., GA 100 mg/kg/day s.c., daily from day 9, three experiments

Row | Compound | maximal average clinical score (EAE mice; 0-6 scale, FTS 20 mg/kg/day i.p., GA 15 mg/kg/day s.c., daily from day 9, FIG. 1B) | maximal average clinical score (EAE mice; [4]) | maximal average clinical score (EAE mice; [5]) | animals that developed clinical signs of EAE (EAE mice; [6]) | maximal average clinical score (EAE mice; Example III: 0-6 scale, FTS 40 mg/kg/day s.c. (dissolved in GA in the combination), GA 15 mg/kg/day s.c., FIG. 7B) | animals that developed clinical signs of EAE (EAE mice; Example III: FTS 40 mg/kg/day s.c. (dissolved in GA in the combination), GA 15 mg/kg/day s.c., daily from day 9) | clinical score as control score (2.4) minus treated score (EAE mice; [7]) | animals that developed clinical signs of EAE (EAE mice; [8]) | animals that developed clinical signs of EAE (EAE mice; [9]) | percent of the maximal response (EAE mice; [7]) | increase of Foxp3 level in splenocytes vs. control (Foxp3) | decrease in lymphocyte proliferation vs. control ([1]; stimulated with 25 μg/ml MOG) | decrease in lymphocyte proliferation vs. control ([1]; stimulated with 50 μg/ml MOG) | decrease in regions of demyelination (LFB) vs. control [2] | reduction of regions with inflammatory infiltrates (H&E nuclei counts) vs. control [2] | decrease in total volume of T2-map lesions per mouse vs. control [3] | decrease in phospho-Erk level in splenocytes vs. GA alone (phospho-Erk) | decrease in phospho-Erk level in splenocytes vs. control (phospho-Erk) | decrease in Ras level in splenocytes vs. control (Ras)
1 | CC(C)=CCC/C(C)=C/CC/C(C)=C/CSc1ccccc1C(=O)O [FTS, S-trans,trans-farnesylthiosalicylic acid] | 2.15±0.45 | 1.07±0.6 | 1±0.33 | 60% | 1.72±0.45 | 90% | 0.25±0.11 | 82.5% | 60.7% | 25% | No significant elevation | 17.85%±5.34% | 29.9%±9.18% | 59.18±10.6% | 28.44%±11.2% | 30.1%±7% | 51.38%±5.6% | 50.18%±9.1% | 
2 | L-glutamic acid polymer with L-alanine, L-lysine and L-tyrosine, acetate (salt) [GA] |  | 1.4±0.43 | 1.3±0.213 | 70% |  |  | 0.02±0.05 | 77.5% | 70.3% | 2% | No significant elevation | 43.19%±6.35% | 41.22%±6.12% | 48.97%±6.78% | 33.12%±6.98% |  |  | does not reduce significantly | does not reduce significantly
